Data on 11 molecules can be found in ChEMBL document CHEMBL1137115, “Preparation of novel aza-1,7-annulated indoles and their conversion to potent indolocarbazole kinase inhibitors” (Bioorg Med Chem Lett, 2004).

Experiment [1] has as its target Cyclin-dependent kinase 4/cyclin D1 (Homo sapiens, UniProt P11802). Briefly: Inhibition of Cyclin D1-cyclin-dependent kinase 4. The format is protein-complex assay.
A short description of experiment [2]: Inhibition of Protein kinase A.
The next experiment has as its system HCT-116. Description: Antiproliferative activity was tested in human HCT116 (colon) cell line. The format is functional, cell-based.
Experiment [3] addresses Cyclin-dependent kinase 2/cyclin E (Homo sapiens, UniProt P24941). Briefly: Inhibition of Cyclin E-cyclin-dependent kinase 2. The format is protein-complex assay.

SMILES strings stand for the structures. Where only a bound is given, the exact number is not on record here.

Cyclin-dependent kinase 4/cyclin D1, sequence (P11802 whole entry): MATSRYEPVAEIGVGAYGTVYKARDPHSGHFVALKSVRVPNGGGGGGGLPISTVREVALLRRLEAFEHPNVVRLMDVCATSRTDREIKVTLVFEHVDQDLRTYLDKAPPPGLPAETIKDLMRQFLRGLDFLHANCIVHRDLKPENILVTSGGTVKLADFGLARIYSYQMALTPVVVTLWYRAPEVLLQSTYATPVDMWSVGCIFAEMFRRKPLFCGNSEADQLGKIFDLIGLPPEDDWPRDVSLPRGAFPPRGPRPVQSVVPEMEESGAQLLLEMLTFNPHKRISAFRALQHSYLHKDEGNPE
Cyclin-dependent kinase 4/cyclin D1, sequence (P24385 whole entry, further chain): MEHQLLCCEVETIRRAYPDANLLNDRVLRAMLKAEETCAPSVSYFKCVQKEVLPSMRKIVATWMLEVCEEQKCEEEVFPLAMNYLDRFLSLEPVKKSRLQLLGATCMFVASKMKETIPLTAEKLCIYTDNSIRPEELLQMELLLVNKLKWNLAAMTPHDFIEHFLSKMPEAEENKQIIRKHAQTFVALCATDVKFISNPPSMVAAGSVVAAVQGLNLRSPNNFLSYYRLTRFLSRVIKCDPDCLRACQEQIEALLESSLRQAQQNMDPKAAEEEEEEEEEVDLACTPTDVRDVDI

Broadly, the IC50 is the concentration at which inhibition is half-maximal. Lower therefore signals inhibition by little substance. Consider `Cc1cn(S(=O)(=O)N2CCn3c4c(cccc4c4c5c(c6c7ccccc7[nH]c6c43)C(=O)NC5=O)C2)cn1`, for which the values for the IC50 (in experiment [1]; in experiment [2]; in the experiment with HCT-116) were 120 nM, > 2000 nM and > 10000 nM, respectively.

As to `CS(=O)(=O)N1CCn2c3c(cccc3c3c4c(c5c6ccccc6[nH]c5c32)C(=O)NC4=O)C1`, the IC50 in experiment [3] was > 200 nM; in experiment [1], 50 nM; in experiment [2], > 2000 nM; in the experiment with HCT-116, 1600 nM.

For the molecule `CC(C)N1CCn2c3c(cccc3c3c4c(c5c6ccccc6[nH]c5c32)C(=O)NC4=O)C1`, the IC50 in experiment [3] is 780 nM; in experiment [1] it was 70 nM; in experiment [2] it was > 2000 nM; with HCT-116, 640 nM.

Consider `NCC(=O)N1CCn2c3c(cccc3c3c4c(c5c6ccccc6[nH]c5c32)C(=O)NC4=O)C1`, for which the IC50 in experiment [2] is > 20000 nM; in the experiment with HCT-116, > 10000 nM.

Take `O=C1NC(=O)c2c1c1c3ccc(C(F)(F)F)c(CO)c3[nH]c1c1c2c2cccc3c2n1CCNC3`: the half-inhibitory concentration (IC50) stood at 40 nM in experiment [1] and 3500 nM in the experiment with HCT-116.

As for `O=C1NC(=O)c2c1c1c3cc(F)ccc3[nH]c1c1c2c2cccc3c2n1CCNC3`, the IC50 in experiment [3] is > 200 nM; in experiment [1], 30 nM; in experiment [2] it was 200 nM; in the experiment on HCT-116 it was 260 nM.

As to `O=C1NC(=O)c2c1c1c3ccc(C(F)(F)F)cc3[nH]c1c1c2c2cccc3c2n1CCNC3`, the IC50 in experiment [3] was 210 nM; in experiment [1], 60 nM; in experiment [2] it was > 2000 nM; with HCT-116, 170 nM.

For `O=C1NC(=O)c2c1c1c3ccccc3[nH]c1c1c2c2cccc3c2n1CCCCNC3`, the IC50 in experiment [3] was 200 nM; in experiment [1], 80 nM; in experiment [2], 40 nM; in the experiment on HCT-116 it was 90 nM.

Turning to `O=C1NC(=O)c2c1c1c3cc(F)c(F)cc3[nH]c1c1c2c2cccc3c2n1CCNC3`, the figures for the IC50 (in experiment [3]; in experiment [2]; with HCT-116) were > 200 nM, > 2000 nM and 400 nM, respectively.

With `O=C1NC(=O)c2c1c1c3ccccc3[nH]c1c1c2c2cccc3c2n1CCNC3`, the IC50 in experiment [3] is 30 nM; in experiment [1], 27 nM; in experiment [2], 160 nM; in the experiment on HCT-116 it was 310 nM.

With `O=C1NC(=O)c2c1c1c3ccc(F)cc3[nH]c1c1c2c2cccc3c2n1CCNC3`, the IC50 in experiment [3] was found to be 10 nM; in experiment [1] it was 30 nM; in experiment [2], 430 nM; in the experiment on HCT-116, 200 nM.
